pIC50: −log10 of the molar value.
How the values were obtained:
[1] = molecular target: ErbB2 with Exon 20 YVMA insertion (HER2-YVMA) (Homo sapiens (Human), UniProt P04626, INS775YVMA); assay: Cellular Phosphorylation Assay, Assay 4 (constitutive ErbB2 phosphorylation, NIH 3T3 cells); assay type: cell-based
EGFR = EGFR (Homo sapiens (Human), UniProt P00533); assay: ErbB Enzyme Assay (HTRF KinEASE-TK), Assay 3; assay type: biochemical
EGFR wild type (EGFR WT) = EGFR wild type (EGFR WT) (Homo sapiens (Human), UniProt P00533); assay: Cellular Phosphorylation Assay, Assay 5 (EGF-stimulated EGFR phosphorylation, NIH 3T3 cells); assay type: cell-based
Chain of EGFR wild type (EGFR WT) (P00533 25-1210): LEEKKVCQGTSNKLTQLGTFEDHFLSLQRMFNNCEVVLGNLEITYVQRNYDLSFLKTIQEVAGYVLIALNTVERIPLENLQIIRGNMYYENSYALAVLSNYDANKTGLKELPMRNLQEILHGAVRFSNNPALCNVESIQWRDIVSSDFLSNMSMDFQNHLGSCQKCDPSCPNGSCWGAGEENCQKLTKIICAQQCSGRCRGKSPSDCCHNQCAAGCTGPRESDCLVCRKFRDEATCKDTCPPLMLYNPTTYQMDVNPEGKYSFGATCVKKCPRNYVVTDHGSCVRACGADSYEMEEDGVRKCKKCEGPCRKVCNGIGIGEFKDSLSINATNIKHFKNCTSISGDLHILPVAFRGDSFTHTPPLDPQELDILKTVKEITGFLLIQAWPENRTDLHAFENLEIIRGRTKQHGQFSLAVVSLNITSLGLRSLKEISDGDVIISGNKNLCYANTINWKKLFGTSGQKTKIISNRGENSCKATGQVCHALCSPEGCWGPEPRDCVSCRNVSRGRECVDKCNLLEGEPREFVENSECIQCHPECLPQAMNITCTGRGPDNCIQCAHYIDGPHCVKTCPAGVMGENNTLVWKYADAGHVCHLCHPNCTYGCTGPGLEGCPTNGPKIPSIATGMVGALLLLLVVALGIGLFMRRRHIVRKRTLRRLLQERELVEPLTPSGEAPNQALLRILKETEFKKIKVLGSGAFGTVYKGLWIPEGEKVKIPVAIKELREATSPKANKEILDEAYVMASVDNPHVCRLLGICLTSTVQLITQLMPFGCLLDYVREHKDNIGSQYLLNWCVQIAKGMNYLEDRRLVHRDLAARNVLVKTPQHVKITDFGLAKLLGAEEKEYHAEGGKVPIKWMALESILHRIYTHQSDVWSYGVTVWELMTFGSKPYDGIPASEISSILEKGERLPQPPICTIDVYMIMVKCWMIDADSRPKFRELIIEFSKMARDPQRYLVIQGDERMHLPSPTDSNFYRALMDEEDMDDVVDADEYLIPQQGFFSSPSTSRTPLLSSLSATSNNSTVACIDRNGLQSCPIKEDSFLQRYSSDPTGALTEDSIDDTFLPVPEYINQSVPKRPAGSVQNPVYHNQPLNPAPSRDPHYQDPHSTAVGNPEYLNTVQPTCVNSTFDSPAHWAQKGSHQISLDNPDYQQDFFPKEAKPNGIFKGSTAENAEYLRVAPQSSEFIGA

ErbB2 WT = ErbB2 WT (Homo sapiens (Human), UniProt P04626); assay: ErbB Enzyme Assay (HTRF KinEASE-TK), Assay 2; assay type: biochemical
Chain of ErbB2 WT (P04626 23-1255): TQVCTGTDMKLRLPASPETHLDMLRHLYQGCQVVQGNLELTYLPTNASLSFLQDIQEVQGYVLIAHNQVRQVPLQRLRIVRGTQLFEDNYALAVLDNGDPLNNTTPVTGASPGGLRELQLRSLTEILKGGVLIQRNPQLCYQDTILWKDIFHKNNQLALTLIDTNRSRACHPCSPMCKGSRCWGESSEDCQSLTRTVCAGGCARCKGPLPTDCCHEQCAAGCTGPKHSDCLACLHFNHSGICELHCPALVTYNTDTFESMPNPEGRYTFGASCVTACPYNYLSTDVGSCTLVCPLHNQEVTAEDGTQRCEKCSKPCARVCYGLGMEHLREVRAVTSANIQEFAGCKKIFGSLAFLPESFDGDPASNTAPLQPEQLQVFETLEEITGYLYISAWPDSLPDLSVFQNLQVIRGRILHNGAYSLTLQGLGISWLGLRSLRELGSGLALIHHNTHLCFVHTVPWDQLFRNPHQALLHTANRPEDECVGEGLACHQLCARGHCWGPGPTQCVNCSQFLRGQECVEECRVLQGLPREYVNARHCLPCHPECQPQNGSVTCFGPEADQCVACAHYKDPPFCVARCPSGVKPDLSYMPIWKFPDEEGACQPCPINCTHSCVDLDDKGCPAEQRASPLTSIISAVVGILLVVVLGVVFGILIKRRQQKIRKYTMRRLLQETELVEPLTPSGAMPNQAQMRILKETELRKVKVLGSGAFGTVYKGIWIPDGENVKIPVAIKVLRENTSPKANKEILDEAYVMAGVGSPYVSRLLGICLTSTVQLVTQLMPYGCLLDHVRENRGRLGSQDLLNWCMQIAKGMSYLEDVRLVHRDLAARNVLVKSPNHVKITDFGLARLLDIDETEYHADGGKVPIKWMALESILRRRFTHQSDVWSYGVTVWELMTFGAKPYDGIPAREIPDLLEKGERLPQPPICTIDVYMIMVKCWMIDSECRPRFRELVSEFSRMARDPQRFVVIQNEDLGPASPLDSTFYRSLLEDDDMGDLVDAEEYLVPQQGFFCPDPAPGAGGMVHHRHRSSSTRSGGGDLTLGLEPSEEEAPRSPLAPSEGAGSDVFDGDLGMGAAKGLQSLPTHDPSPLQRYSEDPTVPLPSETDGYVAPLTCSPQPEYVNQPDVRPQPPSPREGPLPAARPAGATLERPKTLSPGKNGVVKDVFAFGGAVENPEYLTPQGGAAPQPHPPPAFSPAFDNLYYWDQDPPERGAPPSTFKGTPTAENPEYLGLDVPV

BCRP = BCRP (Homo sapiens (Human), UniProt Q9UNQ0); assay: BCRP MDCKII efflux assay (Assay 7); assay type: in vitro ADME; conditions: dog; efflux ratio Papp(B-A)/Papp(A-B), BCRP MDCKII cells; read-out: Assay 7 Pe Ratio
Chain of BCRP (Q9UNQ0 whole entry): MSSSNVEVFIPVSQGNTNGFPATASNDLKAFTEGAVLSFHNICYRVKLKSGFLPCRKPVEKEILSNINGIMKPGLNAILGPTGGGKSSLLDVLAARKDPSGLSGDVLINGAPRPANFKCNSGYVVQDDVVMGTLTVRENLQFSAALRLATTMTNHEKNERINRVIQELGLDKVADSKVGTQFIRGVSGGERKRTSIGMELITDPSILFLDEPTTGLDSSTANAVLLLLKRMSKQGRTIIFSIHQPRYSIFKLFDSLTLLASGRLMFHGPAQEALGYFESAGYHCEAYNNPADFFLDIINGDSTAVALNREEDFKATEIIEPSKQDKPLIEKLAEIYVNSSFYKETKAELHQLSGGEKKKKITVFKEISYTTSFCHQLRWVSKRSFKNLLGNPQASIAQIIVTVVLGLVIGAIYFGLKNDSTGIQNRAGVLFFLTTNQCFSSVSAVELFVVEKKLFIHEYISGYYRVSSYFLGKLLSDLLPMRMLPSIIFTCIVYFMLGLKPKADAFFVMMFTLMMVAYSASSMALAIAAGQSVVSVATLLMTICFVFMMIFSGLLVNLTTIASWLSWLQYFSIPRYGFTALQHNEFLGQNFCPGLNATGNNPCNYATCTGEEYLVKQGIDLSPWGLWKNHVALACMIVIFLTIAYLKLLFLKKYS
Protocol: Assay conditions included with and without the BCRP-specific inhibitor, KO143, at a concentration of 0.3 μM to ascertain the contribution of BCRP to the efflux value of the test compound.
Final organic concentration in the assay was 1%.

[2] = cellular ErbB2 YVMA phosphorylation
[3] = cellular EGFR WT phosphorylation, EGF-stimulated
[4] = EGF-stimulated EGFR WT phosphorylation

Chain of ErbB2 with Exon 20 YVMA insertion (HER2-YVMA) (P04626 other isoform, or with tags, fused parts or gaps ins YVMA behind 775): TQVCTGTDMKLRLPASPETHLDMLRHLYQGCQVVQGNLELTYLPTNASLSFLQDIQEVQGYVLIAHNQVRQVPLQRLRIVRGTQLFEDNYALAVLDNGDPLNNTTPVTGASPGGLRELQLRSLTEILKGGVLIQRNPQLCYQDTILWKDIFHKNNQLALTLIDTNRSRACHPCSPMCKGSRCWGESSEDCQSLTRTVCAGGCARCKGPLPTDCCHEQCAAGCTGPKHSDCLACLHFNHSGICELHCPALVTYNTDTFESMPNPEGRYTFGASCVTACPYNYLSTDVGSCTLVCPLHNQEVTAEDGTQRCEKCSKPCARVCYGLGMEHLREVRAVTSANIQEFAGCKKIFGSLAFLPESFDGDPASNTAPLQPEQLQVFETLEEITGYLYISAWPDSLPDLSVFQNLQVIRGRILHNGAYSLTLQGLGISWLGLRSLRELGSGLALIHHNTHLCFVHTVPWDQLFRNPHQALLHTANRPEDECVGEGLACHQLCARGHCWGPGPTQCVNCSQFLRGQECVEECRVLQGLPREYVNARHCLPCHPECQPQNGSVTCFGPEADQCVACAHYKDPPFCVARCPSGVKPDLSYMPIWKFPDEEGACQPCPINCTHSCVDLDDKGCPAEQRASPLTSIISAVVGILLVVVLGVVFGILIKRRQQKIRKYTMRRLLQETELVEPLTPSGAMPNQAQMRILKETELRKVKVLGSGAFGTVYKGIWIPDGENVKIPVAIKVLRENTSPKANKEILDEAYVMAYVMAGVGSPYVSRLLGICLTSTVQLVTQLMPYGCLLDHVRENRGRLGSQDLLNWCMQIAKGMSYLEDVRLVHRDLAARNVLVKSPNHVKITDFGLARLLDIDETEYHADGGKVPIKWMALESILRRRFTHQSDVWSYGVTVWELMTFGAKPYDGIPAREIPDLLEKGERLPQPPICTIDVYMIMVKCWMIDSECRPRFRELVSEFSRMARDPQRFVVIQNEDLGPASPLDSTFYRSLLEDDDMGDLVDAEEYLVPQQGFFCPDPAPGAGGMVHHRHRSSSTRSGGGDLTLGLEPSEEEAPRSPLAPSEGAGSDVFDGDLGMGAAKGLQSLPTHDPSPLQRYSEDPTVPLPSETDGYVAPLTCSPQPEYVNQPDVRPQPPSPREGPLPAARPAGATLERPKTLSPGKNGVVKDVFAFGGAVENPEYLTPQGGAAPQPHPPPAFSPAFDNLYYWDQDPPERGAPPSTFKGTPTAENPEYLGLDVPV

Row | SMILES | pIC50 [1, 2] | pIC50 (EGFR; EGFR enzyme assay) | pIC50 (EGFR wild type (EGFR WT); [3]) | pIC50 (ErbB2 WT; ErbB2 WT enzyme assay) | efflux ratio at 2 h, 1 µM (BCRP) | pIC50 ([1]; ErbB2 YVMA phosphorylation) | pIC50 (EGFR; EGFR enzyme) | pIC50 (EGFR wild type (EGFR WT); [4]) | pIC50 (ErbB2 WT; ErbB2 WT enzyme)
1 | C=CC(=O)N1C2CC1CN(c1ccc3ncnc(Nc4cc(C)c(Oc5cnc6c(c5)ncn6C)cc4F)c3n1)C2 [Example 446] | 7.55 | ≤ 5.00 | ≤ 5.30 | 5.59 | 19.4 | – | – | – | –
2 | C=CC(=O)N1C[C@H](c2ccc3ncnc(Nc4ccc(Oc5ccn6ncnc6c5)c(C)c4F)c3n2)C[C@H]1COC (mixture of isomers) [Example 306] | 7.69 | 5.71 | 5.51 | 7.23 | 6.8 | – | – | – | –
3 | C=CC(=O)N1CC(c2ccc3ncnc(Nc4cc(C)c(Oc5ccc6c(c5)ncn6C)cc4F)c3n2)CCC12CC2 (stereo not shown) [Example 196, 1-(6-(4-((2-fluoro-5-methyl-4-((1-methyl-1H-benzo[d]imidazol-5-yl)oxy)phenyl)amino)pyrido[3,2-d]pyrimidin-6-yl)-4-azaspiro[2.5]octan-4-yl)prop-2-en-1-one] | – | – | – | – | 2.5 | 7.47 | 5.94 | 5.70 | 7.37
4 | C=CC(=O)N1CCCN(c2ccc3ncnc(Nc4ccc(Oc5cnc6c(c5)ncn6C)c(C)c4)c3n2)CC1 [Example 114, 1-(4-(4-((3-methyl-4-((3-methyl-3H-imidazo[4,5-b]pyridin-6-yl)oxy)phenyl)amino)pyrido[3,2-d]pyrimidin-6-yl)-1,4-diazepan-1-yl)prop-2-en-1-one] | – | – | – | – | 23.5 | 7.52 | ≤ 5.00 | ≤ 5.30 | 6.59
5 | C=CC(=O)N1CCN(c2ccc3ncnc(Nc4ccc(Oc5ccn6ncnc6c5)c(Cl)c4)c3n2)CC1(C)C [Example 74, 1-(4-(4-((4-([1,2,4]triazolo[1,5-a]pyridin-7-yloxy)-3-chlorophenyl)amino)pyrido[3,2-d]pyrimidin-6-yl)-2,2-dimethylpiperazin-1-yl)prop-2-en-1-one] | – | – | – | – | 6.4 | 8.24 | 5.77 | 6.53 | 8.04
6 | C=CC(=O)N1CCCN(c2ccc3ncnc(Nc4ccc(Oc5ccc6c(c5)ncn6C)c(C)c4)c3n2)CC1 [Example 108, 1-(4-(4-((3-methyl-4-((1-methyl-1H-benzo[d]imidazol-5-yl)oxy)phenyl)amino)pyrido[3,2-d]pyrimidin-6-yl)-1,4-diazepan-1-yl)prop-2-en-1-one] | – | – | – | – | 30.1 | 8.13 | ≤ 5.00 | ≤ 5.30 | 7.53
7 | C=CC(=O)N1[C@H](C)CN(c2ccc3ncnc(Nc4ccc(Oc5ccn6ncnc6c5)c(Cl)c4F)c3n2)C[C@@H]1C [Example 288] | 7.98 | 5.87 | 6.11 | 7.96 | 4.4 | – | – | – | –
8 | C=CC(=O)N1CC2CCC(C1)N2c1ccc2ncnc(Nc3cc(Cl)c(Oc4ccn5ncnc5c4)cc3F)c2n1 [Example 441] | 7.75 | 6.17 | 6.11 | 7.51 | 7.3 | – | – | – | –
9 | C=CC(=O)N1CCN(c2ccc3ncnc(Nc4ccc(Oc5cc(F)c6c(c5)ncn6C)c(C)c4)c3n2)C[C@H]1CC [Example 282] | 7.84 | 5.63 | 5.91 | 7.89 | 7.6 | – | – | – | –
10 | C=CC(=O)N1CCN(c2ccc3ncnc(Nc4ccc(Oc5ccn6ncnc6c5)c(C)c4F)c3n2)C[C@H]1C(C)C [Example 267] | 7.53 | 5.05 | 5.97 | 7.34 | 1.7 | – | – | – | –
11 | C=CC(=O)N1CC(Sc2ccc3ncnc(Nc4ccc(Oc5ccn6ncnc6c5)c(C)c4F)c3n2)C1 [Example 63, 1-(3-((4-((4-([1,2,4]triazolo[1,5-a]pyridin-7-yloxy)-2-fluoro-3-methylphenyl)amino)pyrido[3,2-d]pyrimidin-6-yl)thio)azetidin-1-yl)prop-2-en-1-one] | – | – | – | – | 3.8 | 7.71 | 6.29 | 6.37 | 7.50
12 | C=CC(=O)N1C[C@H](c2ccc3ncnc(Nc4cc(C)c(Oc5ccc6c(c5)ncn6C)cc4F)c3n2)CCC1(C)C (racemic) [Example 141, rac-(R)-1-(5-(4-((2-fluoro-5-methyl-4-((1-methyl-1H-benzo[d]imidazol-5-yl)oxy)phenyl)amino)pyrido[3,2-d]pyrimidin-6-yl)-2,2-dimethylpiperidin-1-yl)prop-2-en-1-one] | – | – | – | – | 2.4 | 7.75 | ≤ 5.00 | ≤ 5.30 | 6.75
13 | C=CC(=O)N1CCN(c2ccc3ncnc(Nc4ccc(Oc5ccn6ncnc6c5)c(Cl)c4)c3n2)CC1 [Example 97, 1-(4-(4-((4-([1,2,4]triazolo[1,5-a]pyridin-7-yloxy)-3-chlorophenyl)amino)pyrido[3,2-d]pyrimidin-6-yl)piperazin-1-yl)prop-2-en-1-one] | – | – | – | – | 47 | 8.49 | 6.46 | 6.38 | 8.49
14 | C=CC(=O)N1C[C@@H]2CC(c3ccc4ncnc(Nc5ccc(Oc6ccn7ncnc7c6)c(C)c5F)c4n3)C[C@H]1C2 (stereo partly shown) [Example 268] | 7.47 | 5.32 | ≤ 5.30 | 6.81 | 11.8 | – | – | – | –
15 | C=CC(=O)N1CC[C@H]2CN(c3ccc4ncnc(Nc5cc(C)c(Oc6ccn7ncnc7c6)cc5F)c4n3)C[C@H]21 [Example 26, 1-((3aS,6aS)-5-(4-((4-([1,2,4]triazolo[1,5-a]pyridin-7-yloxy)-2-fluoro-5-methylphenyl)amino)pyrido[3,2-d]pyrimidin-6-yl)hexahydropyrrolo[3,4-b]pyrrol-1(2H)-yl)prop-2-en-1-one] | – | – | – | – | 8.3 | 7.69 | ≤ 5.00 | ≤ 5.30 | 6.92
16 | C=CC(=O)N1C[C@H]2C[C@@H]1CN2c1ccc2ncnc(Nc3ccc(Oc4ccc5c(c4)ncn5C)c(C)c3F)c2n1 [Example 83, 1-((1R,4R)-5-(4-((2-fluoro-3-methyl-4-((1-methyl-1H-benzo[d]imidazol-5-yl)oxy)phenyl)amino)pyrido[3,2-d]pyrimidin-6-yl)-2,5-diazabicyclo[2.2.1]heptan-2-yl)prop-2-en-1-one] | – | – | – | – | 6.3 | 8.02 | 5.25 | ≤ 5.30 | 7.09
17 | C=CC(=O)N1CC2CC(C1)N2c1ccc2ncnc(Nc3ccc(Oc4ccc5c(c4)ncn5C)c(C)c3F)c2n1 [Example 335] | 7.81 | ≤ 5.00 | ≤ 5.30 | 6.78 | 3 | – | – | – | –
18 | C=CC(=O)N1CCC(Sc2nc3c(Nc4ccc(Oc5ccc6c(c5)ncn6C)c(C)c4)ncnc3cc2OC)CC1 [Example 159, 1-(4-((7-methoxy-4-((3-methyl-4-((1-methyl-1H-benzo[d]imidazol-5-yl)oxy)phenyl)amino)pyrido[3,2-d]pyrimidin-6-yl)thio)piperidin-1-yl)prop-2-en-1-one] | – | – | – | – | 15 | 7.92 | 6.34 | 6.31 | 7.69

Now from value to compound:

Row | pIC50 [1, 2] | pIC50 (EGFR; EGFR enzyme assay) | pIC50 (EGFR wild type (EGFR WT); [3]) | pIC50 (ErbB2 WT; ErbB2 WT enzyme assay) | efflux ratio at 2 h, 1 µM (BCRP) | pIC50 ([1]; ErbB2 YVMA phosphorylation) | pIC50 (EGFR; EGFR enzyme) | pIC50 (EGFR wild type (EGFR WT); [4]) | pIC50 (ErbB2 WT; ErbB2 WT enzyme) | SMILES
19 | 7.69 | 5.57 | ≤ 5.30 | 7.78 | 3.4 | – | – | – | – | C=CC(=O)N1C[C@H]2C[C@@H]1[C@H](c1ccc3ncnc(Nc4cc(C)c(Oc5ccc6c(c5)ncn6C)cc4F)c3n1)C2 [Example 374]
20 | 7.72 | 5.99 | 5.70 | 7.36 | 4 | – | – | – | – | C=CC(=O)N1C[C@@H]2C[C@H]1C[C@H]2c1ccc2ncnc(Nc3cc(C)c(Oc4ccc5c(c4)ncn5C)cc3F)c2n1 [Example 375]
21 | 8.26 | 5.97 | 6.09 | 8.01 | 7.4 | – | – | – | – | C=CC(=O)N1CCN(c2ccc3ncnc(Nc4ccc(Oc5ccn6ncnc6c5)c(C)c4F)c3n2)C[C@@H]1COC [Example 362]
22 | 7.82 | 6.31 | 6.37 | 8.09 | 11.3 | – | – | – | – | C#CC1CN(c2ccc3ncnc(Nc4ccc(Oc5ccn6ncnc6c5)c(C)c4F)c3n2)CCN1C(=O)C=C (stereo not shown) [Example 322]
23 | 7.69 | 5.82 | ≤ 5.30 | 7.42 | 16 | – | – | – | – | C=CC(=O)N1C[C@H]2C[C@@H]1[C@H](c1ccc3ncnc(Nc4ccc(Oc5cnc6c(c5)ncn6C)c(C)c4)c3n1)C2 [Example 407]
24 | 7.62 | ≤ 5.00 | ≤ 5.30 | 7.44 | 6.7 | – | – | – | – | C=CC(=O)N1C[C@@H]2CN(c3ccc4ncnc(Nc5ccc(Oc6ccc7c(c6)ncn7C)c(C)c5F)c4n3)C[C@@H]21 [Example 323]
25 | 7.81 | 5.86 | 5.84 | 7.84 | 14.2 | – | – | – | – | C=CC(=O)N1CCN(c2ccc3ncnc(Nc4cc(Cl)c(Oc5ccn6ncnc6c5)cc4F)c3n2)C[C@@H]1COC [Example 346]
26 | 7.71 | 6.05 | 5.70 | 7.71 | 8.9 | – | – | – | – | C=CC(=O)N1CCN(c2ccc3ncnc(Nc4cc(C)c(Oc5ccc6c(c5)ncn6C)cc4F)c3n2)CC12CC2 [Example 340]
